Data: publication PMC5775429, “LY2087101 and dFBr share transmembrane binding sites in the (α4)3(β2)2 Nicotinic Acetylcholine Receptor” (Scientific Reports, 2018)
Marks after values point to notes of the source that are not given here.

What was measured:
(α4)2(β2)3 nAChR = target: T1, (α4)2(β2)3 nAChR (Homo sapiens, UniProt P17787+P43681); settings: cited from earlier work
T1 construct: expressed in transfected cells; host or cells: Xenopus laevis oocytes injected with cRNA

animal model [1] = system: animal model; set-up: method as in PMID 23712602, PMID 28446611, PMID 28809075, PMID 28105008; settings: cited from earlier work
animal model [2] = system: animal model; set-up: method as in PMID 23712602, PMID 28446611, PMID 28809075, PMID 28105008; settings: cited from earlier work; remark: listed apart in the source
(α4T152I)3(β2)2 nAChR = (α4T152I)3(β2)2 nAChR (Homo sapiens, UniProt P43681, T152I); set-up: method as in PMID 28446611; settings: 10 µM ACh + 1 µM dFBr vs 10 µM ACh alone; data reported previously ref 29; cited from earlier work
(α4H142L)3(β2)2 nAChR = (α4H142L)3(β2)2 nAChR (Homo sapiens, UniProt P43681, H142L); set-up: method as in PMID 28446611; settings: 10 µM ACh + 1 µM dFBr vs 10 µM ACh alone; data reported previously ref 29; cited from earlier work
(α4)3(β2)2 nAChR = target: T2, (α4)3(β2)2 nAChR (Homo sapiens, UniProt P17787+P43681); settings: cited from earlier work
T2 construct: expressed in transfected cells; host or cells: Xenopus laevis oocytes injected with cRNA

(α4R65H)3(β2)2 nAChR = (α4R65H)3(β2)2 nAChR (Homo sapiens, UniProt P43681, R65H); set-up: method as in PMID 28446611; settings: 10 µM ACh + 1 µM dFBr vs 10 µM ACh alone; data reported previously ref 29; cited from earlier work
animal model [3] = system: animal model; set-up: method as in PMID 23712602, PMID 28446611, PMID 28809075, PMID 28105008; settings: cited from earlier work; remark: listed apart in the source
(α4R148E)3(β2)2 nAChR = (α4R148E)3(β2)2 nAChR (Homo sapiens, UniProt P43681, R148E); set-up: method as in PMID 28446611; settings: 10 µM ACh + 1 µM dFBr vs 10 µM ACh alone; data reported previously ref 29; cited from earlier work
α3β4 nAChR = target: T3, α3β4 nAChR (Homo sapiens, UniProt P30926+P32297); experiment: Two-electrode voltage-clamp of ACh-induced currents in Xenopus oocytes; assay type: cell-based; settings: 1 μM PAM
T3 construct: expressed in transfected cells; host or cells: Xenopus laevis oocytes injected with cRNA
Experimental: Next, Xenopus oocytes were injected with RNA mixes of […], α3:β4, […], or α4:β4 at ratios of 8:1, 1:1, or 1:8 to express nAChRs with different subunit composition and with various α:β ratios.
Ovarian lobules were surgically harvested from oocytes-positive female Xenopus laevis (NASCO, Fort Atkinson, WI) according to an animal use protocol approved by the Texas A&M Health Sciences Center Institutional Animals Care and Use Committee. The Texas A&M Health Sciences Center Research Facility is registered as an animal research facility with the United States Department of Agriculture and is fully accredited by the American Association for Accreditation of Laboratory Animal Care (AAALAC). For oocytes defolliculation, ovarian lobes were treated with 3 mg/ml collagenase type 2 (Worthington Biomedical, Lakewood, NJ) in Ca + 2-free buffer (85 mM NaCl, 2.5 mM KCl, 1 mM MgCl2, 5 mM HEPES, pH 7.6). Collagenase treatment was allowed to proceed for 3 hours at room temperature with gentle shaking then oocytes were washed several times with buffer to remove collagenase then with ND96-gentamicine buffer. Healthy Stage V and VI oocytes were visually selected and maintained at 18 °C in modified ND96-gentamicine buffer (96 mM NaCl, 2 mM KCl, 1.8 mM CaCl2, 1 mM MgCl2, 5 mM HEPES, 50 µg/ml gentamicin, pH 7.6). Oocytes were injected with 50–100 ng of the desired nAChR subunits cRNA mix at ratios of 8α:1β or 1α:8β to express nAChRs with subunit stoichiometries of 3α:2β (low agonist sensitivity) or 2α:3β (high agonist sensitivity), respectively.
Oocytes were continuously perfused with recording buffer (100 mM NaCl, 2 mM KCl, 1 mM CaCl2, 0.8 mM MgCl2, 1 mM EGTA, 10 mM Hepes, pH 7.5) except during periods of drug applications.

(α4G67E)3(β2)2 nAChR = (α4G67E)3(β2)2 nAChR (Homo sapiens, UniProt P43681, G67E); set-up: method as in PMID 28446611; settings: 10 µM ACh + 1 µM dFBr vs 10 µM ACh alone; data reported previously ref 29; cited from earlier work
(α4L63I)3(β2)2 nAChR = (α4L63I)3(β2)2 nAChR (Homo sapiens, UniProt P43681, L63I); set-up: method as in PMID 28446611; settings: 10 µM ACh + 1 µM dFBr vs 10 µM ACh alone; data reported previously ref 29; cited from earlier work
(α4E92I)3(β2)2 nAChR = (α4E92I)3(β2)2 nAChR (Homo sapiens, UniProt P43681, E92I); set-up: method as in PMID 28446611; settings: 10 µM ACh + 1 µM dFBr vs 10 µM ACh alone; data reported previously ref 29; cited from earlier work
α3β2 nAChR = target: T4, α3β2 nAChR (Homo sapiens, UniProt P17787+P32297); experiment: Two-electrode voltage-clamp of ACh-induced currents in Xenopus oocytes; assay type: cell-based; settings: 1 μM PAM
T4 construct: expressed in transfected cells; host or cells: Xenopus laevis oocytes injected with cRNA

(α4Q150T)3(β2)2 nAChR = (α4Q150T)3(β2)2 nAChR (Homo sapiens, UniProt P43681, Q150T); set-up: method as in PMID 28446611; settings: 10 µM ACh + 1 µM dFBr vs 10 µM ACh alone; data reported previously ref 29; cited from earlier work
[4] = ACh concentration-response curve

T1 sequence (P43681 29-627 limits assumed): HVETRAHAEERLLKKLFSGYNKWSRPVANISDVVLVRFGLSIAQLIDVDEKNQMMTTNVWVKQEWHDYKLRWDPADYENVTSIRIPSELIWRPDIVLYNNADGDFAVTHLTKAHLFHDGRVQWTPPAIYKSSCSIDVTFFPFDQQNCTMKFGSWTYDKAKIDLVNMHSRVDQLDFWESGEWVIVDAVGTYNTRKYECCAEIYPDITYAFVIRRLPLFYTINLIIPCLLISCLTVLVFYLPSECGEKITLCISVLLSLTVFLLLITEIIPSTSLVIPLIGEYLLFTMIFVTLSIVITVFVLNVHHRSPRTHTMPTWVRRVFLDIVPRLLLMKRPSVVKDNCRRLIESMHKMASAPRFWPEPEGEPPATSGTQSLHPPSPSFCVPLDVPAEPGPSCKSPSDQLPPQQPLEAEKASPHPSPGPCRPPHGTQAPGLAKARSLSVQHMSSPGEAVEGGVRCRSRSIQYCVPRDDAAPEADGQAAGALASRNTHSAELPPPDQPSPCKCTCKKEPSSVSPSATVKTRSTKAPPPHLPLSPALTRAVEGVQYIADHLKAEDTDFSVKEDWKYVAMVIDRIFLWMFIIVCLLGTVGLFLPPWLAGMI
T1 sequence (P17787 26-502): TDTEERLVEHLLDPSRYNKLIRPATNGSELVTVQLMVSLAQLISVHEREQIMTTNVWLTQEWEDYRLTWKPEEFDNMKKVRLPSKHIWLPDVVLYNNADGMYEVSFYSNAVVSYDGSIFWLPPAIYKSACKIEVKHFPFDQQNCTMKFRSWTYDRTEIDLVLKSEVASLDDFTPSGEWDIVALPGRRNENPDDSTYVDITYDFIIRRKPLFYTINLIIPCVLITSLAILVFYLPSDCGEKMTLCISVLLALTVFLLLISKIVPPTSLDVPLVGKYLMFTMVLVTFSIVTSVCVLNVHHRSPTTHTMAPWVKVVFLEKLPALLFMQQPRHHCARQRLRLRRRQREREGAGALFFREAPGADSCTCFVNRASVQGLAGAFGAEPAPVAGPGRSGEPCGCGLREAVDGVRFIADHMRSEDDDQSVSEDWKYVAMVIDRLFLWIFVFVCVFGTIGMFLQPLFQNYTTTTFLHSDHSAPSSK
T2 sequence (P43681 29-627 limits assumed): as the sequence (P43681 29-627 limits assumed) above
T2 sequence (P17787 26-502): as the sequence (P17787 26-502) above
(α4L63I)3(β2)2 nAChR, sequence (P43681 29-627 L63I limits assumed): as the sequence (P43681 29-627 limits assumed) above, with L35I counted along it
(α4L63I)3(β2)2 nAChR, sequence (P17787 26-502 partner): as the sequence (P17787 26-502) above
(α4G67E)3(β2)2 nAChR, sequence (P43681 29-627 G67E limits assumed): as the sequence (P43681 29-627 limits assumed) above, with G39E counted along it
(α4G67E)3(β2)2 nAChR, sequence (P17787 26-502 partner): as the sequence (P17787 26-502) above
(α4Q150T)3(β2)2 nAChR, sequence (P43681 29-627 Q150T limits assumed): as the sequence (P43681 29-627 limits assumed) above, with Q122T counted along it
(α4Q150T)3(β2)2 nAChR, sequence (P17787 26-502 partner): as the sequence (P17787 26-502) above
(α4R148E)3(β2)2 nAChR, sequence (P43681 29-627 R148E limits assumed): as the sequence (P43681 29-627 limits assumed) above, with R120E counted along it
(α4R148E)3(β2)2 nAChR, sequence (P17787 26-502 partner): as the sequence (P17787 26-502) above
(α4E92I)3(β2)2 nAChR, sequence (P43681 29-627 E92I limits assumed): as the sequence (P43681 29-627 limits assumed) above, with E64I counted along it
(α4E92I)3(β2)2 nAChR, sequence (P17787 26-502 partner): as the sequence (P17787 26-502) above
(α4T152I)3(β2)2 nAChR, sequence (P43681 29-627 T152I limits assumed): as the sequence (P43681 29-627 limits assumed) above, with T124I counted along it
(α4T152I)3(β2)2 nAChR, sequence (P17787 26-502 partner): as the sequence (P17787 26-502) above
T3 sequence (P32297 32-505): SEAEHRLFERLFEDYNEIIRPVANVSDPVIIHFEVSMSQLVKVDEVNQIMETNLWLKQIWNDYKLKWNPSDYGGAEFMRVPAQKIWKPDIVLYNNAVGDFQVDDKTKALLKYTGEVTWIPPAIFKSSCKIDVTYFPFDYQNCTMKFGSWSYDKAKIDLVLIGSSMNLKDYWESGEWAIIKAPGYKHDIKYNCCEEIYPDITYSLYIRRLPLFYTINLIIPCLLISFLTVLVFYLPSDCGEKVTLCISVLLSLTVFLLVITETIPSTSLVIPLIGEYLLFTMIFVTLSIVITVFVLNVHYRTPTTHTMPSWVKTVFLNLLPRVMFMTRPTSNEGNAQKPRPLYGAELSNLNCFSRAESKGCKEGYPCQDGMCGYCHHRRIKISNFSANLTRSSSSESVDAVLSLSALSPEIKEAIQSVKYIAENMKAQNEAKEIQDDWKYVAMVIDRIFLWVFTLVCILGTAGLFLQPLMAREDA
T3 sequence (P30926 22-498): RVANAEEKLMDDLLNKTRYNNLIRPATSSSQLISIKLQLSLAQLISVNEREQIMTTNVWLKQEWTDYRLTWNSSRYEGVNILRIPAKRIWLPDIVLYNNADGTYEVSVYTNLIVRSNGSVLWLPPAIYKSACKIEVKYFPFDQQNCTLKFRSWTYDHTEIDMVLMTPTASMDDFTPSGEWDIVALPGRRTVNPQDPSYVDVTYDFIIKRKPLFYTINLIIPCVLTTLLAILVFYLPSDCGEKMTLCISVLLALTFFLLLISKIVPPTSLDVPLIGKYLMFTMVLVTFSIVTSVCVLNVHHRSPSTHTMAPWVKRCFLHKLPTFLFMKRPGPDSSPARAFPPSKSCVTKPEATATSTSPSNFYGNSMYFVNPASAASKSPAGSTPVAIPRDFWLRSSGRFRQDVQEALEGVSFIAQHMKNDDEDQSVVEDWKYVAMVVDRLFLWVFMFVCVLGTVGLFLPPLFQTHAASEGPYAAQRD
T4 sequence (P32297 32-505): as the sequence (P32297 32-505) above
T4 sequence (P17787 26-502): as the sequence (P17787 26-502) above
(α4H142L)3(β2)2 nAChR, sequence (P43681 29-627 H142L limits assumed): as the sequence (P43681 29-627 limits assumed) above, with H114L counted along it
(α4H142L)3(β2)2 nAChR, sequence (P17787 26-502 partner): as the sequence (P17787 26-502) above
(α4R65H)3(β2)2 nAChR, sequence (P43681 29-627 R65H limits assumed): as the sequence (P43681 29-627 limits assumed) above, with R37H counted along it
(α4R65H)3(β2)2 nAChR, sequence (P17787 26-502 partner): as the sequence (P17787 26-502) above

SMILES: C=CC(C)(C)c1[nH]c2cc(Br)ccc2c1CCNC [dFBr]
- increase in ACh efficacy (Imax) by dFBr ((α4)2(β2)3 nAChR; [4]): ~ 4 fold
- dFBr maximal potentiation ((α4)2(β2)3 nAChR): 300%
- EC50 ((α4)2(β2)3 nAChR; read-out: dFBr potentiation EC50): ~1000 nM
- nicotine self-administration (animal model [1]): reduce nicotine self-administration
- nicotine withdrawal signs (animal model [2]): reverse nicotine withdrawal signs
- R, potentiation ratio (PR) ((α4T152I)3(β2)2 nAChR): 2.6 ± 0.4^a
- R, potentiation ratio (PR) ((α4H142L)3(β2)2 nAChR): 8.1 ± 0.6^a
- increase in ACh efficacy (Imax) by dFBr ((α4)3(β2)2 nAChR; [4]): ~ 4 fold
- dFBr maximal potentiation ((α4)3(β2)2 nAChR): 400%
- R, potentiation ratio (PR) ((α4R65H)3(β2)2 nAChR): 5.3 ± 1.8^a
- antiallodynic response of nicotine (animal model [3]): potentiate the antiallodynic response of nicotine
- R, potentiation ratio (PR) ((α4R148E)3(β2)2 nAChR): 10.3 ± 2.4^a
- potentiation of ACh responses (α3β4 nAChR): did not potentiate
- R, potentiation ratio (PR) ((α4G67E)3(β2)2 nAChR): 4.1 ± 0.2^a
- R, potentiation ratio (PR) ((α4L63I)3(β2)2 nAChR): 3.5 ± 0.3^a
- R, potentiation ratio (PR) ((α4E92I)3(β2)2 nAChR): 9.3 ± 1.8^a
- potentiation of ACh responses (α3β2 nAChR): did not potentiate
- R, potentiation ratio (PR) ((α4Q150T)3(β2)2 nAChR): 3.9 ± 0.1^a
